Key:
[1] = tested on: Arabidopsis thaliana roots; experiment: Intracellular NO (RNS burst) in roots, DAF-DA probe; assay type: cell-based; settings: for NO accumulation in roots vs mock: 10 µM, DAF-DA fluorescence fold change at 20 min vs mock (DMSO 0.1%), n = 12 from three independent experiments, Figure 3A,B
Experimental: For the detection of intracellular NO, roots were processed as described above and 200 µL sterile water was replaced by 200 µL 5 μM DAF-DA in a buffered solution (10 mM Tris/HCl, pH = 7.4). Roots were incubated at room temperature for 1 h in the absence of light and then washed 3 times with Tris/HCl (10 mM, pH = 7.4). The fluorescence emitted by DAF-DA was detected by excitation at 495 nm and emission at 515 nm. Experiments where NO was measured after pretreatment with the calcium channel blocker or calcium chelator included an additional step where LaCl3 (10 mM; Merck Chemicals SA, Hoeilaart, Belgium) or EGTA (1 mM; Merck Chemicals SA, Hoeilaart, Belgium) was added three minutes before treatments. Data were processed as described above for ROS. For NO measurements in protoplasts, the suspension was incubated in the same conditions before being distributed (50 µL) in microplate wells and treated with the CLPs at a 10 µM final concentration or with 0.1% DMSO as a mock.

[2] = tested on: Arabidopsis thaliana root protoplasts; experiment: NO burst in root protoplasts, DAF-DA probe; assay type: cell-based; settings: 10 µM, fold change at 20 min vs mock; n = 12; Figure 3C; in roots Srf and Liche increased NO, Pumi had no impact
Experimental: Two-week-old Arabidopsis thaliana seedling roots (from 27 mg seeds) were collected and were cut into 1–2 mm segments and incubated in a protoplasting solution (20 mM MES pH 5.7, 0.4 M mannitol, 20 mM KCl, 10 mM CaCl2, 0.1% (w/v) BSA, 1.5% (w/v) cellulase R10 (Duchefa Biochemie, Haarlem, The Netherlands), 0.4% (w/v) macerozyme R10 (Duchefa Chimie)) for 3 h at room temperature and in the dark. After incubation, 1 mL of solution A (154 mM NaCl, 5 mM KCl, 125 mM CaCl2, 4 mM MES, pH = 5.7) was added inside. The suspension was agitated gently and filtered by a 70 µm pore filter to remove extra root debris. Filtered suspension was centrifuged at 850 g for 6 min at room temperature, and the pelleted protoplasts were rinsed three times with solution B (4 mM MES pH 5.7, 154 mM NaCl, 125 mM CaCl2, 5 mM KCl) before being resuspended in solution C (2 mM MES pH 5.7, 0.5 M mannitol, 20 mM KCl, 2 mM CaCl2) at a working concentration of 1–2 × 10^5 cells per mL. For the detection of intracellular NO, roots were processed as described above and 200 µL sterile water was replaced by 200 µL 5 μM DAF-DA in a buffered solution (10 mM Tris/HCl, pH = 7.4). Roots were incubated at room temperature for 1 h in the absence of light and then washed 3 times with Tris/HCl (10 mM, pH = 7.4). The fluorescence emitted by DAF-DA was detected by excitation at 495 nm and emission at 515 nm. Experiments where NO was measured after pretreatment with the calcium channel blocker or calcium chelator included an additional step where LaCl3 (10 mM; Merck Chemicals SA, Hoeilaart, Belgium) or EGTA (1 mM; Merck Chemicals SA, Hoeilaart, Belgium) was added three minutes before treatments. Data were processed as described above for ROS. For NO measurements in protoplasts, the suspension was incubated in the same conditions before being distributed (50 µL) in microplate wells and treated with the CLPs at a 10 µM final concentration or with 0.1% DMSO as a mock.

[3] = UPLC-MS retention on C18 as relative hydrophobicity; assay type: physicochemical; settings: chromatographic, C18 (BEH C18 1.7 µm), water/ACN with 0.1% TFA gradient, 40 °C; order of homologue groups Srf, Liche, Pumi; Figure 1B,D,F
Excerpt: The purified material was freeze-dried (lyophilisator Martin Christ alpha 3–4 LSC BASIC) before storage. All the CLPs used in this research were freshly prepared from powder before each experiment. The concentration of Liche or Pumi was referred to the concentration of Srf and determined by MassHunter Workstation software (version B.09.00) after data collection from an Agilent Technologies 1290 Infinity (Santa Clara, CA, USA), with a C18 reversed-phase column (waters acquity premier BEH C18 1.7 µm 2.1 mm × 50 mm) being used at a flow rate of 0.6 mL/min and a temperature of 40 °C. […] That was coupled with a mass detector (Agilent Technologies 6530 Accurate-Mass Q-TOF LC/MS, Santa Clara, CA, USA) in positive mode, with the parameters set up as follows: drying gas temperature of 300 °C, drying gas of 8 L/min, nebulizer of 35 psi, sheath gas temperature of 350 °C, flow rate of sheath gas of 11 L/min, capillary voltage of 3.5 kV, nozzle voltage (expt) of 1 kV, fragmentor voltage of 175 V, skimmer voltage of 65 V, and octopole radiofrequency of 750 V. Accurate mass spectra were recorded in the m/z range of 100–1700. […]

Substance	NO accumulation in roots vs mock [1]	NO burst in root protoplasts, trend compared to roots [2]	UPLC-MS elution order (relative hydrophobicity) [3]	Srf-induced RNS (NO burst) in roots after pretreatment with Ca2+ chelator EGTA ([1]; EGTA 1 mM added three minutes before treatment, over 50 min, n = 8 from two independent experiments, Figure 4D)	Srf-induced RNS (NO burst) in roots after pretreatment with Ca2+ channel blocker LaCl3 ([1]; LaCl3 10 mM added three minutes before treatment, over 50 min, n = 8 from two independent experiments, Figure 4C)
pumilacidin	no impact	very similar trend	then Pumi		
lichenysin		very similar trend			
surfactin [Srf]	fast accumulation of NO	very similar trend	eluted first	abolished	abolished

— article PMC12562324, “Surfactin Structural Variants Differentially Modulate Plant Immune Responses” (Biomolecules, 2025)
